Test results as given in patent publication US20110105326A1, “Method for Enhancing the Rainfastness of Glyphosate” (BASF SE, priority 2008, published 2011).

Tests used:
Assay type in all cases: in vivo
[1] = system: Brachiaria decumbens (BRADE); assay: herbicidal action with/without simulated rainfall after treatment, Brachiaria decumbens; design: key: % damage vs untreated control; 0 = no damage, 100 = complete destruction; details: 180 g/ha lactofen, 1080 g/ha glyphosate; for herbicidal action against Brachiaria decumbens (BRADE): control without simulated rainfall, Example 14.1; for herbicidal action aaainst BRADE: simulated rainfall 30 min after treatment, Example 14.2; for herbicidal action against BRADE: simulated rainfall 6 hours after treatment, Example 14.3
Protocol: (§1) The enhancement of the rainfastness of glyphosate was determined via the herbicidal activity of the mixture comprising glyphosate and the respective rainfastness enhancing herbicidal component B as well as of the single herbicidal components in relation to simulated rainfall at different time intervals.
(§2) The evaluation of the damage caused by the method and the compositions the according to the present invention and the single herbicidal components was carried out using a scale from 0 to 100%, compared to the untreated control plots. Here, 0 means no damage and 100 means complete destruction of the plants of a respective weed or crop species.
(§3) The application was performed with a fixed spayer system with air pressurization and with a tank spray volume of two liters. The speed of the spray device over the plants was adjusted for a spray volume of 200 I/ha. The spray device was a spray barr with four nozzles from the type Teejet XR 11002VS with a space of 50 cm between each nozzle.
(§4) The application was performed at a weed stage of 6 to 8 leaves. After the application of the formulated herbicides the leaves were washed through rain of 20 mm using a fixed rain simulator system at following time interval: 15 min, 30 min, 1, 2, 3, 4 and 6 hours after treatment.

[2] = system: Euphorbia heterophylla (EUPHO); assay: herbicidal action with/without simulated rainfall after treatment, Euphorbia heterophylla; design: key: % damage vs untreated control: 0 = no damage, 100 = complete destruction; details: 180 g/ha lactofen, 1080 g/ha glyphosate; for herbicidal action against Euphorbia heterophylla (EUPHO): control without simulated rainfall, Example 13.1
Protocol: as §1, §2, §3, §4

[3] = system: Echinochloa colonum (ECHCO); assay: herbicidal action with/without simulated rainfall after treatment, Echinochloa colonum; design: key: % damage vs untreated control; 0 = no damage, 100 = complete destruction; details: 180 g/ha lactofen, 1080 g/ha glyphosate; for herbicidal action against Echinochloa colonum (ECHCO): control without simulated rainfall, Example 12.1
Protocol: as §1, §2, §3, §4

Question: Which results are given for `CCOC(=O)C(C)OC(=O)c1cc(Oc2ccc(C(F)(F)F)cc2Cl)ccc1[N+](=O)[O-]` (stereo not drawn) [Lactofen, lactofen]?
Answer: herbicidal action against Brachiaria decumbens (BRADE) ([1]; 1 DAA): 5; herbicidal action against Brachiaria decumbens (BRADE) ([1]; 2 DAA): 9; herbicidal action against Brachiaria decumbens (BRADE) ([1]; 3 DAA): 8.66; herbicidal action against Brachiaria decumbens (BRADE) ([1]; 7 DAA): 14; herbicidal action aaainst BRADE ([1]; 1 DAA): 5; herbicidal action aaainst BRADE ([1]; 2 DAA): 18.33; herbicidal action aaainst BRADE ([1]; 3 DAA): 24.66; herbicidal action aaainst BRADE ([1]; 7 DAA): 26; herbicidal action against BRADE ([1]; 1 DAA): 9.66; herbicidal action against BRADE ([1]; 2 DAA): 16; herbicidal action against BRADE ([1]; 3 DAA): 22.66; herbicidal action against BRADE ([1]; 7 DAA): 25.33; herbicidal action against Euphorbia heterophylla (EUPHO) ([2]; 1 DAA): 9.66; herbicidal action against Euphorbia heterophylla (EUPHO) ([2]; 2 DAA): 19; herbicidal action against Euphorbia heterophylla (EUPHO) ([2]; 3 DAA): 37; herbicidal action against Euphorbia heterophylla (EUPHO) ([2]; 7 DAA): 47; herbicidal action against EUPHO ([2]; simulated rainfall 15 min after treatment, 1 DAA, Example 13.2): 20.66; herbicidal action against EUPHO ([2]; simulated rainfall 15 min after treatment, 2 DAA, Example 13.2): 39; herbicidal action against EUPHO ([2]; simulated rainfall 15 min after treatment, 3 DAA, Example 13.2): 40; herbicidal action against EUPHO ([2]; simulated rainfall 15 min after treatment, 7 DAA, Example 13.2): 74.33; herbicidal action against EUPHO ([2]; simulated rainfall 2 hours after treatment, 1 DAA, Example 13.3): 18; herbicidal action against EUPHO ([2]; simulated rainfall 2 hours after treatment, 2 DAA, Example 13.3): 42; herbicidal action against EUPHO ([2]; simulated rainfall 2 hours after treatment, 3 DAA, Example 13.3): 39; herbicidal action against EUPHO ([2]; simulated rainfall 2 hours after treatment, 7 DAA, Example 13.3): 73.33; herbicidal action against Echinochloa colonum (ECHCO) ([3]; 2 DAA): 61.66; herbicidal action against Echinochloa colonum (ECHCO) ([3]; 3 DAA): 76.66; herbicidal action against Echinochloa colonum (ECHCO) ([3]; 7 DAA): 75.33; herbicidal action against ECHCO ([3]; simulated rainfall 15 min after treatment, 2 DAA, Example 12.2): 46.66; herbicidal action against ECHCO ([3]; simulated rainfall 15 min after treatment, 3 DAA, Example 12.2): 57.66; herbicidal action against ECHCO ([3]; simulated rainfall 15 min after treatment, 7 DAA, Example 12.2): 46.33; herbicidal action against ECHCO ([3]; simulated rainfall 30 min after treatment, 2 DAA, Example 12.3): 53; herbicidal action against ECHCO ([3]; simulated rainfall 30 min after treatment, 3 DAA, Example 12.3): 60; herbicidal action against ECHCO ([3]; simulated rainfall 30 min after treatment, 7 DAA, Example 12.3): 46; herbicidal action against ECHCO ([3]; simulated rainfall 2 hours after treatment, 2 DAA, Example 12.4): 48.33; herbicidal action against ECHCO ([3]; simulated rainfall 2 hours after treatment, 3 DAA, Example 12.4): 63.33; herbicidal action against ECHCO ([3]; simulated rainfall 2 hours after treatment, 7 DAA, Example 12.4): 39.33
